Where “and” joins values, the source holds several entries; their conditions need not be identical. Equal values may be shown once.
Columns and labels:
[1] = tested on: thymus, spleen, bone marrow and mesenteric lymph nodes
From the text: The pathologic effect of GCV treatment was further evaluated by histological analysis.

B and T lymphocytes = assay: Flow cytometry of B and T lymphocytes after GCV treatment; type: in vivo, mouse
From the text: Although the pattern of toxicity was clearly lymphoid-specific, it was not possible to evaluate the impact of GCV treatment on subpopulations of B and T cells by visual inspection. Flow cytometry was employed to analyze specific populations of B and T lymphocytes in mice subjected to various GCV treatment protocols. B lymphocytes were identified by analyzine for the markers, immunoglobulin and B220, and T lymphocytes were identified by Thy-1. After 7 days of GCV treatment, striking and different effects were observed on B and T lymphocytes in spleens of KHTK mice (FIG. 4). The most dramatic impact was on immunoglobulin and B220-positive B cells, which were reduced by a factor of 20 after GCV treatment. Cells bearing the T-cell surface marker, Thy-1, had decreased to 35% of the PBS group. Thus, although both B and T cells in the periphery were sensitive to the toxic action of GCV, B-cell lineages were more susceptible to ablation.
Mice of transgenic line 552 or nontransgenic littermates were treated with GCV for 5 days. The thymuses of individual mice were assayed by two-color flow cytometry and reported as a percentage of total thymocytes expressing the indicated markers. Data are typical of three experiments.
Mice were treated with GCV for 5 days and then two-color flow cytometry was performed to assess the effect of GCV treatment on double-positive, single-positive, and double-negative populations. In non-transgenic mice, 80% of cells were double-positive, 14% were single-positive, and 5% were double-negative. The composition of cells surviving GCV treatment in transgenic mice was markedly altered from that of the control population. There was a relative depletion by a factor of 4 in the double-positive L3T4^+, Lyt-2^+ population and a 3- to 5-fold increase in single-positive L3T4^+, Lyt-2^− and L3T4^−, Lyt-2^+ cells. There was also an increase in the percentage of cells expressing T-cell receptor complex-associated molecule CD3.ε. […] There was also a 6-fold increase in L3T4^−, Lyt-2^− cells. […] It should be pointed out that, although single-positive and CD3^+ cells are relatively enriched in the thymus of drug-treated animals (i.e., percentage), in terms of absolute cell number all thymic lineages are ablated in drug-treated transgenic animals.

thymocytes = assay: Recovery of the lymphoid system following GCV treatment; type: in vivo, mouse
Protocol: Recovery of the Lymphoid System following GCV Treatment. One potential advantage of the conditional ablation method is the ability to remove the drug and evaluate the regenerative capabilities of the affected cell lineages. Repopulation of specific thymocyte lineages in KHTK mice was examined by subjecting mice to a severe ablation of lymphoid tissues followed by a recovery period. Accordingly, one group of animals was treated with GCV or PBS for 7 days followed by a 7-day recovery period. All groups were assayed simultaneously for the total number of thymocytes and the presence of specific antigenic markers. Transgenic mice treated with PBS had 1.1×10^8 thymocytes, whereas, after 7 days of GCV treatment, >99% of the thymocyte population was depleted. After 7 days of recovery, the total number of cells increased by 60-fold to nearly 50% of the PBS-treated control group. To characterize specific populations of thymocytes in the depleted and recovery thymus, […] flow cytometry was performed. […] Nontransgenic mice treated with GCV had the same percentage of L3T4^+ and Lyt-2^+ thymocytes as PBS-treated animals.

[2] = tested on: Abelson leukemia virus induced lymphomas; assay: Lymphoma response to GCV in HSV-TK transgenic and nontransgenic mice; type: in vivo, mouse
Protocol: Lymphomas were induced by injecting 5 to 6 week old transgenic mice (generated as described in Example III) intravenously with 0.5 ml of cell-free medium from confluent cultures of 1806-6 cells grown in Dulbecco's medium containing 7% calf serum and 7% fetal bovine serum (Green et al., 1987). These cells produce helper-free Abelson leukemia virus, which induces monoclonal lymphomas principally of the fre-B cell type. The virus encodes a transforming protein but is defective and therefore incapable of replicating or of encoding retroviral antigens in the lymphoma cells it helps to generate. Starting 14 days after virus administration, the mice were palpated daily for lymphomas. These were detectable as small, firm, bilateral nodules in the inguinal region, representing enlarged inguinal lymph nodes. In most cases, the presence of the tumors could be suspected 1-2 days preceding a definitive diagnosis, but the latter was made only after daily palpation confirmed the presence and the growing nature of the enlarged nodes. In the litters used, more than 90% of the injected mice developed lymphomas.
In initial experiments, several transgenic mice were treated with GCV for 5 days (10 doses) without precautions against infection, based on dose schedules previously found to be well tolerated in nontransgenic mice [Moolten, Cancer Res. 46:5276-5281 (1986)]. […] Presuming these deaths to be due to infections consequent to the lymphoid depletion, we limited the GCV therapy to five doses for the subsequent trials reported below and instituted the short-term infection control regimen detailed above, which entailed the use of sterile cages and sterile food and water during a 21-day isolation period. These modifications eliminated all drug-related deaths.
GCV treatment was begun when lymphomas first appeared. […] After it was determined that death inevitably followed these preterminal symptoms, usually within 4 days, were killed animals when the symptoms first appeared rather than utilizing natural death as a survival end point; in the few cases where mice died with large tumors but without preterminal symptoms, the day of natural death was recorded as the end point. This practice introduced about 4 days of imprecision into the estimates of median survival but conforms to current humane guidelines [Medical Research Council, UK Coordinating Committee on Cancer Research: guidelines for the welfare of animals in experimental neoplasia (1988); Kallman et al., Cancer Res. 45:6541-6544 (1985)]. The transgenic mice and littermates were used from 10 litters born to 6 female line 563 transgenic mice mated to BALB/c males. The other nontransgenic controls listed comprised, in the GCV-treated group, 15 C57B1/6×BALB/c (CB6) mice F1 and F2generations) and 8 CB6F1×BALB/c mice, and in the untreated group 29 CB6 (F1 and F2,5 CB6F1×BALB/c, and 15 BALB/c mice. Since the founder mouse of the 563 line was heterozygous for genes derived from C57B1/6 and BALB/c mice, these additional mice complemented the littermate controls by eliminating the possibility that differences between transgenic mice and their littermates were attributable not to the transgene itself but to some other endogenous gene affecting the behavior of lymphomas that differ between C57B1/6 and BALB/c mice and which by accident of integration site found itself genetically linked to the transgene.

[3] = GCV serum and tissue concentration by miniosmotic pump (HPLC)
Protocol: Transgenic mice from founder line 563 and their non-transgenic litter mates were treated with the nucleoside analog GCV for 1 week by using a miniosmotic pump. […] A separate control group was implanted with a miniosmotic pump containing isotonic phosphate-buffered saline (PBS).

[4] = transgenic line 563, 7 days GCV
[5] = nontransgenic littermates, GCV 5 days
[6] = transgenic line 552, GCV 5 days
[7] = transgenic vs nontransgenic, GCV 5 days
[8] = after 7 days of recovery following 7 days GCV
[9] = HSV-TK transgenics, GCV five doses
[10] = Nontransgenics Line 563 littermates, GCV

Nc1nc2c(ncn2COC(CO)CO)c(=O)[nH]1 [GCV, 9-[(1,3-dihydroxy-2-propoxy)methyl]guanine]
number of cells in the bone marrow ([1]; GCV-treated transgenic mice): 15 % of control | number of cells in the spleen ([1]; GCV-treated transgenic mice): 15 % of control | number of cells in the thymus ([1]; GCV-treated transgenic mice): 2 % of control | cell counts of lymphoid tissues vs PBS-treated group ([1]; mouse, in vivo): unchanged | pathology in nontransgenic mice ([1]; mouse, in vivo): no apparent pathology | wet weights of lymph nodes [1, 4]: 20 % of control | wet weights of the spleen and thymus [1, 4]: 15 % of control | histology of thymus ([1]; transgenic mice, 7 days GCV): atrophied thymus with a virtual complete absence of the cortex and a hypocellular medulla | Thy-1 bearing cells in spleen (B and T lymphocytes; KHTK mice, 7 days GCV): 35 % of the PBS group | reduction factor of immunoglobulin and B220-positive B cells in spleen (B and T lymphocytes; KHTK mice, 7 days GCV): 20 | single-positive cells (B and T lymphocytes; non-transgenic mice, GCV 5 days): 14% | % thymocytes CD3.ε+ (B and T lymphocytes; [5]): 35% | % thymocytes L3T4+, Lyt-2+ (B and T lymphocytes; [5]): 80% | % thymocytes L3T4+, Lyt-2- (B and T lymphocytes; [5]): 10% | % thymocytes L3T4-, Lyt-2+ (B and T lymphocytes; [5]): 4% | % thymocytes L3T4-, Lyt-2- (B and T lymphocytes; [5]): 5% | Total cell number (thymus) (B and T lymphocytes; [5]): 6.3 × 10^7 | profile of antigenic markers (B and T lymphocytes; nontransgenic mice treated with GCV): normal | % thymocytes CD3.ε+ (B and T lymphocytes; [6]): 76% | % thymocytes L3T4+, Lyt-2+ (B and T lymphocytes; [6]): 21% | % thymocytes L3T4+, Lyt-2- (B and T lymphocytes; [6]): 27% | % thymocytes L3T4-, Lyt-2+ (B and T lymphocytes; [6]): 21% | % thymocytes L3T4-, Lyt-2- (B and T lymphocytes; [6]): 30% | Total cell number (thymus) (B and T lymphocytes; [6]): 3.8 × 10^6 | increase in L3T4-, Lyt-2- cells (B and T lymphocytes; [7]): 6 fold | relative depletion factor of double-positive L3T4+, Lyt-2+ population (B and T lymphocytes; [7]): 4 | increase of total number of thymocytes (thymocytes; [8]): 60 fold | total number of thymocytes relative to PBS-treated control group (thymocytes; [8]): ~50% | nonspecific effects on T-cell lineages (thymocytes; nontransgenic mice, GCV 7 days and recovery): no nonspecific effects | thymocyte population depleted (thymocytes; transgenic mice, after 7 days of GCV treatment): > 99% | Fraction of Mice with complete Regressions [2, 9]: 11 of 12 and 11/12 | Median survival (days) of mice with recurrent or persistent lymphoma [2, 9]: 39 days | Number remaining recurrence-free for >100 days [2, 9]: 5 | Fraction of Mice with complete Regressions [2, 10]: 0/17 | Median survival (days) of mice with recurrent or persistent lymphoma [2, 10]: 13 days | Number remaining recurrence-free for >100 days [2, 10]: 0 | Fraction of Mice with complete Regressions ([2]; Other nontransgenics, GCV): 0/23 | Median survival (days) of mice with recurrent or persistent lymphoma ([2]; Other nontransgenics, GCV): 8 days | Number remaining recurrence-free for >100 days ([2]; Other nontransgenics, GCV): 0 | survival of mice with late recurrences ([2]; three transgenic mice, GCV five doses): 47 days and 63 days and 90 days | tumor response ([2]; transgenic mice, GCV 5 days (10 doses), no precautions against infection): regressed and became undetectable after the fifth dose | outcome of mice ([2]; transgenic mice, GCV 5 days (10 doses), no precautions against infection, usually during the second week): the mice died | steady-state serum concentration ([3]; miniosmotic pump, within 24 hr, HPLC): 1 to 5 µM | concentration of GCV in all tissues assayed ([3]; relative to serum 1-5 μM): comparable to this value
